Source: PubChem BioAssay AID540268 (Broad Institute, 2011)
Values joined by “and” are separate entries in the source; they are usually repeats but may differ in a detail not shown here. Identical values can stand only once.

Experiment: reduced viability of parasite-Hsp90 expressing yeast – ATP luminescence, 48 h, cherry-picked samples, anti-malarial Hsp90 inhibitor project, dose response (AID 540268)
Conditions: yeast expressing the parasite Hsp90, ATP luminescence
`O=C(/C=C/c1ccccc1Cl)c1ccc(O)cc1` showed an AC50 of 4.63 µM.
With `CC(=NNC(=S)N1CC2CCC(CC2)C1)c1ccncn1` the AC50 was 2.36 µM.
Compound `S=C1SCN(Cc2cccnc2)CN1Cc1cccnc1` has an AC50 of 4.07 µM.
Work on `Cc1ccc(-n2c(Cl)c(Cl)nc(Cl)c2=O)cc1` yielded an AC50 of 1.2 µM.
For `COc1ccccc1-c1sc2cc3c(cc2c1-c1ccc(O)cc1)OCO3`, the AC50 was 8.2 µM.
`Cc1cccc2cc(CN(Cc3nnnn3C3CCCCC3)C3CCCC3)c3nnnn3c12` gave an AC50 of 2.2 µM.
`COc1cc(/C=C/[N+](=O)[O-])ccc1OC(=O)c1cccnc1` gave an AC50 of 1.65 µM.
Work on `CC(=O)OC1(C)CC(C)C(=O)C(C(O)CC2CC(=O)NC(=O)C2)C1` (stereo unspecified) yielded an AC50 of under 0.195 µM.
With `CN(C)/C=C/C(=O)/C=C/c1cn(-c2ncc(C(F)(F)F)cc2Cl)c2ccccc12` the AC50 was 4.18 µM.
For `O=[N+]([O-])c1ccc(Sc2nc3ccccc3o2)c([N+](=O)[O-])c1`, the AC50 was 3.56 µM.
With `O=C(O)/C=C/C(=O)c1ccc2c(c1)CCc1ccccc1-2` the AC50 was 26.3 µM.
Compound `Cc1cc2n(n1)C(c1c[nH]c3ccccc13)Nc1ccccc1-2` (stereo unspecified) has an AC50 of 2.67 µM.
With `CCCOC(=O)c1ccc(Oc2cn[nH]c2-c2ccc(OC)cc2O)cc1` the AC50 was 6 µM.
`CC(C)(C)c1ccc(C(=O)CC(Sc2ccc(Cl)cc2)C(=O)O)cc1` (stereo unspecified) showed an AC50 of 7.29 µM.
In the case of `Clc1ccc(N=c2ssnc2Cl)nc1`, the AC50 is reported as 3.19 µM.
Compound `Oc1ccc(O)c2c1C1(Cl)C(Cl)=C(Cl)C2(Cl)C1(Cl)Cl` has an AC50 of 3.87 µM.
`O=C(Nc1nnc(-c2ccc3c(c2)CCCC3)o1)c1ccc(Cl)cc1Cl` showed an AC50 of 3.35 µM.
With `Cc1ccc(/C=[N+](\[O-])c2ccc(N(C)C)cc2)c2nsnc12` the AC50 was 8.1 µM.
`CN(CC(=O)Nc1cccc(F)c1)C(=O)c1cn(-c2ccccc2)nc1-c1ccc(Cl)cc1` gave an AC50 of 7.8 µM.
In the case of `COc1ccc(-c2nnc(SCC(=O)Oc3ccc(C)cc3)o2)cc1`, the AC50 is reported as 2.02 µM.
Work on `O=C(Nc1nc(-c2ccccn2)cs1)c1ccc(Br)s1` yielded an AC50 of 2.18 µM.
In the case of `CN1CCN(C(=O)c2cc(COc3c(F)cccc3F)on2)CC1c1ccccc1` (stereo unspecified), the AC50 is reported as 0.43 µM.
With `Oc1ccc2ccccc2c1N=Nc1nccs1` the AC50 was 0.63 µM.
`O=C1C2C3C=CC(CNS(=O)(=O)c4ccccc4)(O3)C2C(=O)N1c1ccc(Cl)cc1` (stereo unspecified) showed an AC50 of 3.73 µM.
Work on `CN(c1ccccc1)c1ccc(/C=C/[N+](=O)[O-])cc1` yielded an AC50 of 5.24 µM.
`O=[N+]([O-])c1cc(Cl)c(O)c2ncccc12` showed an AC50 of 1.81 µM.
For `CCCCCCCCCCCCCCCC[n+]1cccc(C(=O)N(CC)CC)c1`, the AC50 was 2.89 µM and 8.12 µM.
In the case of `Cc1cccnc1Nc1nc(-c2ccccn2)cs1`, the AC50 is reported as 4.32 µM.
For `O=C(Nc1ccccc1N1CCOCC1)c1ccc([N+](=O)[O-])s1`, the AC50 was 8.44 µM.
`O=C(N/N=C/c1sc2ccccc2c1O)c1ccccc1` showed an AC50 of 1.13 µM.
In the case of `O=S(=O)(/C=C/c1ccccc1)NC1CCCCCC1`, the AC50 is reported as 4.16 µM.
For `O=C1/C(=C\c2cccc(O)c2O)SC(=S)N1Cc1ccccc1`, the AC50 was 9.6 µM.
Work on `CCN1/C(=C/c2ccc3cc(C)ccc3[n+]2CC)Sc2cc(C)c(C)cc21` yielded an AC50 of 3.25 µM.
In the case of `Cc1ccc(NC(=O)c2ccc(Cl)c(N3C(=O)C=CC3=O)c2)cc1`, the AC50 is reported as 2.38 µM.
Compound `CCCc1cc(NCc2ccccn2)n2nc(C)c(-c3ccccc3)c2n1` has an AC50 of 1.29 µM.
With `CCCCCCCCn1sccc1=O` the AC50 was 0.871 µM.
With `Cc1cc(/C=C2\SC(=S)NC2=O)c(C)n1-c1ccc(O)cc1` the AC50 was 4.65 µM.
Compound `Cc1ccc(NC(=S)NCC23C=CC(O2)C2C(=O)N(c4ccc(C)cc4)C(=O)C23)cc1` (stereo unspecified) has an AC50 of 8.61 µM.
`C[C@H]1C[C@@H](C)C(=O)[C@@H]([C@H](O)CC2CC(=O)NC(=O)C2)C1` gave an AC50 of under 0.195 µM.
With `C=CCn1c(O)c(C2=c3ccccc3=NC2=O)c2ccccc21` the AC50 was 0.844 µM.
`Cc1cccc(NC(=O)c2nc(S(=O)(=O)Cc3ccccc3)ncc2Cl)c1` gave an AC50 of 3.15 µM.
Compound `Cc1ccc2nc(-c3cccc(NS(C)(=O)=O)c3)cc(-c3ccccc3)c2c1` has an AC50 of 9.6 µM.
In the case of `CC[C@@H]1Cc2cc(O)ccc2C2=C1c1ccc(O)cc1C[C@H]2CC`, the AC50 is reported as 7.76 µM.
`COc1ccc(-c2nnc3n(CCc4ccccc4)c(=O)c4ccccc4n23)c(OC)c1` showed an AC50 of 8.97 µM.
With `COc1cccc(/C=N/Nc2ccc([N+](=O)[O-])cn2)c1O` the AC50 was 4.36 µM.
In the case of `CCCC(=O)NC(c1ccc2c(c1)OCO2)c1cc(Cl)c2cccnc2c1O` (stereo unspecified), the AC50 is reported as 4.45 µM.
For `CCC(=O)OCOc1ccc(/C=C2/CCC(CN(C)C)C2=O)cc1` (stereo unspecified), the AC50 was 2.89 µM.
For `O=C(OCC(=O)C12CC3CC(CC(C3)C1)C2)c1ccc(O)cc1`, the AC50 was 1.06 µM.
Compound `CCCCCCCCCCOC(=O)Cn1c(COc2cccc(C)c2)[n+](C)c2ccccc21` has an AC50 of 15.5 µM.
`COc1cccc2c1C(=O)c1c(O)c3c(c(O)c1C2=O)CC(O)(C(C)=O)CC3OC1CC(N(C)C)C(O)C(C)O1` (stereo unspecified) gave an AC50 of 1.58 µM.
`CN(C)/C=C/C(=O)c1ccc(Oc2ccccc2)cc1` showed an AC50 of 3.92 µM.
`O=C(/C(=C/O)N=Nc1cccc(C(F)(F)F)c1)c1ccccc1` showed an AC50 of 4.14 µM.
`CCOc1ccc(C(Nc2cccnc2)c2cc(Cl)c3cccnc3c2O)cc1` (stereo unspecified) gave an AC50 of 1.5 µM.
Work on `O=c1c2ccccc2nc(-c2ccc(-c3ccccc3)cc2)n1-c1ccncc1` yielded an AC50 of 5.21 µM.
`CC(C)(C)C(=O)NCC12C=CC(O1)C1C(=O)N(c3ccccc3)C(=O)C12` (stereo unspecified) showed an AC50 of 5.05 µM.
In the case of `N#C/C(=C\c1ccc([N+](=O)[O-])o1)C(=O)Nc1ccc(F)cc1`, the AC50 is reported as 0.33 µM.
